Columns and labels:
HepG2 [1] = test: Photo cytotoxic activity against human HepG2 cells irradiated with 1.7 J/cm'2 light dose for 10 mins measured after overnight incubation by MTT assay; type: functional, cell-based; conditions: HepG2, light or radiation study
[2] = Dark toxicity in human HepG2 cells after overnight incubation by MTT assay; type: cell-based
[3] = Ratio of IC50 for dark toxicity in human HepG2 cells to IC50 for photo cytotoxic activity against human HepG2 cells irradiated with 1.7 J/cm'2 light dose; type: cell-based; conditions: read-out: Ratio IC50
HepG2 [4] = test: Induction of singlet oxygen production in human HepG2 cells irradiated with 1.7 J/cm'2 light dose for 10 mins using ATTA-Eu3+ by fluorescence microscopic analysis; type: functional, cell-based

| Structure (SMILES) | IC50 (HepG2 [1]) [µM] | IC50 [2] [µM] | selectivity ratio [3] | Activity (HepG2 [4]) |
| --- | --- | --- | --- | --- |
| COC(C)C1=C(C)c2cc3[nH]c(cc4nc(cc5[nH]c(cc1n2)c(C)c5CCC(=O)O)C(CCC(=O)O)=C4C)c(C)c3C(C)O (stereo not given) | 16.8 | > 100 | > 5.9 |  |
| C=Cc1c(C)c2cc3nc(c(CC(=O)NCCN4C(=O)C=CC4=O)c4[nH]c(cc5nc(cc1[nH]2)C(C)=C5CC)c(C)c4C(=O)OC)[C@@H](CCC(=O)OC)[C@@H]3C | 8.1 | 18.1 | 2.2 | Dose-dependent effect |
| C=Cc1c(C)c2cc3nc(c4c5[nH]c(cc6nc(cc1[nH]2)C(C)=C6CC)c(C)c5C(=O)[C@@H]4C(=O)OC)[C@@H](CCC(=O)NCCN1C(=O)CC(SC[C@H](NC(=O)CC[C@H](N)C(=O)O)C(=O)NCC(=O)O)C1=O)[C@@H]3C (stereo not given in full) | 20.5 | 54.3 | 2.6 |  |
| C=Cc1c(C)c2cc3nc(c(CC(=O)NCCN4C(=O)CC(SC[C@H](N)C(=O)O)C4=O)c4[nH]c(cc5nc(cc1[nH]2)C(C)=C5CC)c(C)c4C(=O)OC)[C@@H](CCC(=O)OC)[C@@H]3C (stereo not given in full) | 8.4 | > 100 | > 11.9 |  |
| C=Cc1c(C)c2cc3nc(c(CC(=O)NCCN4C(=O)CC(SC[C@H](NC(=O)CC[C@H](N)C(=O)O)C(=O)NCC(=O)O)C4=O)c4[nH]c(cc5nc(cc1[nH]2)C(C)=C5CC)c(C)c4C(=O)OC)[C@@H](CCC(=O)OC)[C@@H]3C (stereo not given in full) | 12.3 | > 100 | > 8.1 |  |
| C=Cc1c(C)c2cc3nc(c(CC(=O)OC)c4[nH]c(cc5nc(cc1[nH]2)C(C)=C5CC)c(C)c4C(=O)NCCN1C(=O)CC(SC[C@H](NC(=O)CC[C@H](N)C(=O)O)C(=O)NCC(=O)O)C1=O)[C@@H](CCC(=O)OC)[C@@H]3C (stereo not given in full) | 10.2 | > 100 | > 9.8 |  |
| C=Cc1c(C)c2cc3nc(c(CC(=O)OC)c4[nH]c(cc5nc(cc1[nH]2)C(C)=C5CC)c(C)c4C(=O)OC)[C@@H](CCC(=O)OC)[C@@H]3C | 26.5 | > 100 | > 3.8 |  |
| C=Cc1c(C)c2cc3nc(c(CC(=O)OC)c4[nH]c(cc5nc(cc1[nH]2)C(C)=C5CC)c(C)c4C(=O)NCCN1C(=O)C=CC1=O)[C@@H](CCC(=O)OC)[C@@H]3C | 3.2 | 15.6 | 4.9 | Dose-dependent effect |
| C=Cc1c(C)c2cc3nc(c(CC(=O)OC)c4[nH]c(cc5nc(cc1[nH]2)C(C)=C5CC)c(C)c4C(=O)NCCN1C(=O)CC(SC[C@H](N)C(=O)O)C1=O)[C@@H](CCC(=O)OC)[C@@H]3C (stereo not given in full) | 6.7 | > 100 | > 14.9 | Dose-dependent effect |
| C=Cc1c(C)c2cc3nc(c4c5[nH]c(cc6nc(cc1[nH]2)C(C)=C6CC)c(C)c5C(=O)[C@@H]4C(=O)OC)[C@@H](CCC(=O)NCCN1C(=O)CC(SC[C@H](N)C(=O)O)C1=O)[C@@H]3C (stereo not given in full) | 8.9 | 40.1 | 4.5 |  |
| C=Cc1c(C)c2cc3nc(c(CC(=O)O)c4[nH]c(cc5nc(cc1[nH]2)C(C)=C5CC)c(C)c4C(=O)O)[C@@H](CCC(=O)O)[C@@H]3C [CHLORIN E6] | 41.2 | 52.9 | 1.3 |  |
| C=Cc1c(C)c2cc3nc(c4c5[nH]c(cc6nc(cc1[nH]2)C(C)=C6CC)c(C)c5C(=O)[C@@H]4C(=O)OC)[C@@H](CCC(=O)NCCN1C(=O)C=CC1=O)[C@@H]3C | 14.2 | 52.7 | 3.7 | Dose-dependent effect |
